Assay results reported in patent US10822345B2 (4SC AG, priority 2015, dated 2020).
One block for each compound: values may come before it.

Assays:
[1] = target: Kv1.3 (Homo sapiens (Human), UniProt P22001); experiment: Patch-clamp assay for inhibitory activity on Kv1.3 (whole cell recording); type: cell-based; conditions: n≥2 per concentration, three or more concentrations
Procedure: Patch-Clamp Assay for Inhibitory Activity on Kv1.3
For a description of a Kv1.3 patch-clamp assay, see Grissmer et al., Mol. Pharmacol. 1994, 45, 1227; whole cell patch-clamp recording was performed with n≥2 individual experiments at each compound concentration using different cells. Three or more different concentrations were determined per dose response curve.

[2] = system: female Dark Agouti rats; experiment: Pristane-induced arthritis (PIA) model; type: in vivo, rat; conditions: MTX 0.05 mg/kg i.p., sid, DAY16 to DAY30; maximum AI=16; controls AI around 14; p=0.001
Procedure: Pristane-Induced Arthritis (PIA) Model
Arthritis was induced in female Dark Agouti rats by intradermal injection of 150 μL/rat pristane into the base of the tail on DAY0, according to Vingsbo et al., Am. J. Pathol. 1996, 149, 1675. Compound treatment was started on DAY16 and continued until DAY30, dosing Example 53 at 60 mg/kg, p.o., sid, and Example 34 at 45 mg/kg, p.o., bid, each in a lipophilic formulation. As a positive control, methotrexate (MTX) was dosed i.p., sid, with 0.05 mg/kg, also starting DAY16. Arthritis development was monitored daily by a macroscopic scoring system for the four limbs ranging from 0 to 4 (0=no visible effects of arthritis; 1=edema and/or erythema of one digit; 2=edema and/or erythema of two joints; 3=edema and/or erythema of more than two joints; 4=severe arthritis of the entire paw and digits, associated with ankylosis and deformity of the paw.), resulting in an Arthritic Index (AI) reflecting the sum of scores of all 4 limbs per rat (maximum AI=16).
Disease induction in saline-treated and vehicle-treated control animals reached a maximum of AI around 14.

Kv1.3, sequence (P22001 whole entry): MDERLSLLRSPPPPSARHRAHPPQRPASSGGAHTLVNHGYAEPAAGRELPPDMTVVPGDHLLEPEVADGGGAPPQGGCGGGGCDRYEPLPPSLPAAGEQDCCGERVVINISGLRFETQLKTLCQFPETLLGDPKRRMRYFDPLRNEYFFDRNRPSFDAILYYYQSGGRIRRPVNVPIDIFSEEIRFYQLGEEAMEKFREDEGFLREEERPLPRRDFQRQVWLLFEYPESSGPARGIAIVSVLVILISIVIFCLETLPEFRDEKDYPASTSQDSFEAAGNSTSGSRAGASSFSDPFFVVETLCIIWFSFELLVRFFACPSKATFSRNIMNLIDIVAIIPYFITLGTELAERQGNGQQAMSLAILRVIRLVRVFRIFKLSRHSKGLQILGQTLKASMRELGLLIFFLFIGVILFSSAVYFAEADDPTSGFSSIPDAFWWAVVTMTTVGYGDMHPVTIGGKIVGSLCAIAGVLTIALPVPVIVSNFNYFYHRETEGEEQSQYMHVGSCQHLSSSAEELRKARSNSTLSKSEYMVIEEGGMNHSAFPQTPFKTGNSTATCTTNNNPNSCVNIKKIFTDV

Structure (SMILES): COc1ccccc1-c1cc(=O)oc2c(C)c3occ(C)c3cc12 [Example 1, 5-(2-methoxyphenyl)-3,9-dimethyl-7H-furo[3,2-g]chromen-7-one]
- IC50 [1]: ≤ 500 nM

Structure (SMILES): Cc1c(-c2ccccc2F)c2cc3c(C)coc3c(C)c2oc1=O [Example 5, 5-(2-fluorophenyl)-3,6,9-trimethyl-7H-furo[3,2-g]chromen-7-one]
- IC50 [1]: ≤ 500 nM

Structure (SMILES): COc1ccccc1-c1c(C)c(=O)oc2c(C)c3occ(C)c3cc12 [Example 7, 5-(2-methoxyphenyl)-3,6,9-trimethyl-7H-furo[3,2-g]chromen-7-one]
- IC50 [1]: ≤ 500 nM

Structure (SMILES): Cc1coc2c(C)c3oc(=O)cc(-c4ccccc4F)c3cc12 [Example 8, 5-(2-fluorophenyl)-3,9-dimethyl-7H-furo[3,2-g]chromen-7-one]
- IC50 [1]: ≤ 500 nM

Structure (SMILES): Cc1c(-c2ccccc2)c2cc3c(C)coc3c(C)c2oc1=O [Example 9, 3,6,9-trimethyl-5-phenyl-7H-furo[3,2-g]chromen-7-one]
- IC50 [1]: ≤ 500 nM

Structure (SMILES): CCOc1ccccc1-c1c(C)c(=O)oc2c(C)c3occ(C)c3cc12 [Example 10, 5-(2-ethoxyphenyl)-3,6,9-trimethyl-7H-furo[3,2-g]chromen-7-one]
- IC50 [1]: ≤ 500 nM

Structure (SMILES): Cc1c(-c2ccccc2Cl)c2cc3c(C)coc3c(C)c2oc1=O [Example 11, 5-(2-chlorophenyl)-3,6,9-trimethyl-7H-furo[3,2-g]chromen-7-one]
- IC50 [1]: ≤ 500 nM

Structure (SMILES): CCc1coc2c(C)c3oc(=O)c(C)c(-c4ccccc4)c3cc12 [Example 16, 3-ethyl-6,9-dimethyl-5-phenyl-7H-furo[3,2-g]chromen-7-one]
- IC50 [1]: ≤ 500 nM

Structure (SMILES): Cc1c(-c2ccccc2)c2cc3c(C)coc3nc2oc1=O [Example 25, 3,6-dimethyl-5-phenyl-7H-furo[2,3-b]pyrano[3,2-e]pyridin-7-one]
- IC50 [1]: ≤ 500 nM

Structure (SMILES): Cc1coc2c(C)c3[nH]c(=O)c(Br)c(-c4ccccc4)c3cc12 [Example 26, 6-bromo-3,9-dimethyl-5-phenylfuro[3,2-g]quinolin-7(8H)-one]
- IC50 [1]: ≤ 500 nM

Structure (SMILES): Cc1coc2c(C)c3[nH]c(=O)c(Br)c(-c4ccccc4F)c3cc12 [Example 27, 6-bromo-5-(2-fluorophenyl)-3,9-dimethylfuro[3,2-g]quinolin-7(8H)-one]
- IC50 [1]: 501 to 1500 nM

Structure (SMILES): CN(Cc1cnc2nc(N)nc(N)c2n1)c1ccc(C(=O)N[C@@H](CCC(=O)O)C(=O)O)cc1 [MTX, methotrexate]
- Arthritic Index (AI) [2]: ~8.7

Results, then the compound that gave them:

- IC50 [1]: ≤ 500 nM
Structure (SMILES): Cc1c(-c2ccccc2F)c2cc3c(C)coc3c(C)c2[nH]c1=O [Example 30, 5-(2-fluorophenyl)-3,6,9-trimethylfuro[3,2-g]quinolin-7(8H)-one]

- IC50 [1]: ≤ 500 nM
Structure (SMILES): Cc1c(-c2ccccc2)c2cc3c(C)coc3c(C)c2[nH]c1=O [Example 31, 3,6,9-trimethyl-5-phenylfuro[3,2-g]quinolin-7(8H)-one]

- IC50 [1]: ≤ 500 nM
Structure (SMILES): Cc1coc2c(C)c3c(cc12)c(-c1ccccc1)c(Br)c(=O)n3C [Example 33, 6-bromo-3,8,9-trimethyl-5-phenylfuro[3,2-g]quinolin-7(8H)-one]

- IC50 [1]: ≤ 500 nM
Structure (SMILES): Cc1c(-c2ccccc2)c2cc3c(C)coc3c(C)c2n(C)c1=O [Example 34, 3,6,8,9-tetramethyl-5-phenylfuro[3,2-g]quinolin-7(8H)-one]

- IC50 [1]: ≤ 500 nM
Structure (SMILES): Cc1c(-c2ccccc2)c2cc3c(C)noc3c(C)c2[nH]c1=O [Example 36, 3,6,9-trimethyl-5-phenylisoxazolo[4,5-g]quinolin-7(8H)-one]

- IC50 [1]: ≤ 500 nM
Structure (SMILES): Cc1c(-c2ccccc2Cl)c2cc3c(C)coc3c(C)c2[nH]c1=O [Example 40, 5-(2-chlorophenyl)-3,6,9-trimethylfuro[3,2-g]quinolin-7(8H)-one]

- IC50 [1]: ≤ 500 nM
Structure (SMILES): Cc1c2oc(=O)cc(-c3ccccc3)c2cc2c(C3CC3)coc12 [Example 41, 3-cyclopropyl-9-methyl-5-phenyl-7H-furo[3,2-g]chromen-7-one]

- IC50 [1]: ≤ 500 nM
Structure (SMILES): Cc1c(-c2ccccc2)c2cc3c(C)csc3c(C)c2oc1=O [Example 43, 3,6,9-trimethyl-4-phenyl-2H-thieno[3,2-g]chromen-2-one]

- IC50 [1]: 1500 to 3000 nM
Structure (SMILES): Cc1c(-c2ccccc2)c2cc3c(C)c(C#N)oc3c(C)c2oc1=O [Example 45]

- IC50 [1]: ≤ 500 nM
Structure (SMILES): Cc1c(-c2ccccc2)c2cc3c(C)coc3nc2n(C)c1=O [Example 49, 3,6,8-trimethyl-5-phenylfuro[2,3-b][1.8]naphthyridin-7(8H)-one]

- IC50 [1]: ≤ 500 nM
Structure (SMILES): Cc1c(-c2cccnc2)c2cc3c(C)coc3c(C)c2oc1=O [Example 53, 3,6,9-trimethyl-5-(pyridin-3-yl)-7H-furo[3,2-g]chromen-7-one]

- IC50 [1]: ≤ 500 nM
Structure (SMILES): Cc1c(-c2cccnc2)c2cc3c(C)coc3c(C)c2[nH]c1=O [Example 54, 3,6,9-trimethyl-5-(pyridin-3-yl)furo[3,2-g]quinolin-7(8H)-one]

- IC50 [1]: ≤ 500 nM
Structure (SMILES): Cc1c(-c2ccccc2Cl)c2cc3c(C)coc3c(C)c2n(C)c1=O [Example 60, 5-(2-chlorophenyl)-3,6,8,9-tetramethylfuro[3,2-g]quinolin-7(8H)-one]

- IC50 [1]: ≤ 500 nM
Structure (SMILES): Cc1c(-c2ccccc2F)c2cc3c(C)coc3c(C)c2n(C)c1=O [Example 61, 5-(2-fluorophenyl)-3,6,8,9-tetramethylfuro[3,2-g]quinolin-7(8H)-one]

- IC50 [1]: 501 to 1500 nM
Structure (SMILES): COc1ncccc1-c1c(C)c(=O)oc2c(C)c3occ(C)c3cc12 [Example 62, 5-(2-methoxypyridin-3-yl)-3,6,9-trimethyl-7H-furo[3,2-g]chromen-7-one]
